Assay [1] relates to serum insulin. Kind of assay: Insulin Inhibition In Dogs (I.V. infusion of test compound with L-alanine infusion, serum insulin by radioimmunoassay). The assay is classed as in vivo, dog. As to conditions: for inhibition of insulin concentration: fasted dog, I.V. infusion, doses: Example 4 0.147, Example 7 0.182, Example 10 0.247 μg/kg/min, Example 14 0.092, 0.126, 0.128, 0.198 μg/kg/min and 0.305 mg/kg/min. As for the experimental part: (§1) A normal dog is fasted overnight. An intravenous (I.V.) infusion of the test compound (dissolved in saline) is begun. Thirty minutes thereafter an additional infusion of L-alanine (dissolved in saline) is begun and is continued for a total of 15 minutes so that a total dose of about 1 mmole of L-alanine per kg. body weight is given. Infusion of the test compound is continued for an additional 15 minute period.
(§2) Blood samples are taken periodically before (at -20, -10 and -1 minutes) and after (5, 10, 15, 30, 35, 40, 45, 50, 60, 90, 120 and 150 minutes) the start of the infusion of the test compound. The serum insulin and serum glucagon concentrations in the blood are determined by radioimmunoassay. A plot is made of the glucagon and insulin concentrations versus time. The plot obtained from the test compound is compared to plots obtained from somatostatin and saline (controls) in similar experiments.
(§3) Infusion of L-alanine (in the absence of somatostatin or active test compound) causes an abrupt increase in serum insulin and glucagon concentrations. The concentrations return to basal levels after the L-alanine infusion is terminated. Infusion of somalostatin (alone) causes a decrease in basal serum concentrations of insulin and glucagon.

The subject of assay [2] is serum glucagon. The experiment in a line: Glucagon Inhibition In Dogs (I.V. infusion of test compound with L-alanine infusion, serum glucagon by radioimmunoassay). Format: in vivo, dog. As to conditions: for inhibition of glucagon concentration: fasted dog, I.V. infusion, doses: Example 4 0.147, Example 7 0.182, Example 10 0.247 μg/kg/min, Example 14 0.092, 0.126, 0.128, 0.198 μg/kg/min and 0.305 mg/kg/min. As for the experimental part: as §1, §2, §3

Assay [3] relates to growth hormone (GH) secretion. The experiment in a line: Growth Hormone Inhibition In Rats (pentobarbital-stimulated GH secretion, serum GH by radioimmunoassay). As to conditions: male rats, peptide S.C.; for Serum Growth Hormone Conc. Mean ± SEM: pentobarbital 4 mg/rat I.P. The assay is classed as in vivo. How it is done: This test is a modification of the method of P. Brazeau et al. Endocrinology, 94, 184 (1974). Male rats (weighing 100-110 g.) are divided into three groups of eight rats each. Each rat is administered sodium pentobarbital at a dose of 4 mg/rat (I.P.) to stimulate growth hormone (GH) secretion. Simultaneously, one group of rats receives the test compound (S.C.); the second group receives somatostatin (S.C.); and the third group (control) receives saline (S.C.). Twenty-minutes later, the animals are decapitated and blood samples are collected. The serum concentration of growth hormone (GH) is determined by radioimmunoassay. The mean GH concentration (±standard error of the mean) is calculated for each group. The percent inhibition of GH release (as compared to saline controls) is then calculated for the test compound and for somatostatin. When tested as above-described, the peptides of Example 4, 7, 10, and 14, representative of the peptides of Formula III, gave the results set forth below in Table I: […]

[4] abbreviates: Dose (mg/kg) 2, 20 min after dosing.
The mark [5] stands for this setting: Dose (mg/kg) 50, 20 min after dosing.
[6] abbreviates: dog, in the presence of L-alanine.
[7] abbreviates: dog, infusion alone (no L-alanine).

Molecules are shown by their SMILES. “And” between values parts separate entries of the source, which are not always exact repeats. Equal values may be shown once. Bridge positions count the residues as written; N and C are the ends. Square brackets hold non-standard residues; d marks the D form. Peptide text beside a SMILES is read from it.

`CC(C)[C@@H](N)C(=O)NCC(=O)N[C@H]1CSSC[C@@H](C(=O)O)NC(=O)[C@H](CO)NC(=O)[C@H]([C@@H](C)O)NC(=O)[C@@H](Cc2ccccc2)NC(=O)[C@H]([C@@H](C)O)NC(=O)[C@H](CCCCN)NC(=O)[C@@H](Cc2c[nH]c3ccccc23)NC(=O)[C@H](Cc2ccccc2)NC(=O)[C@@H](Cc2ccccc2)NC(=O)[C@H](C)NC(=O)[C@H](CCCCN)NC1=O` [Example 4, D-Valyl-L-glycyl-L-cysteinyl-L-lysyl-L-alanyl-D-phenylalanyl-L-phenylalanyl-D-tryptophyl-L-lysyl-L-threonyl-D-phenyl-alanyl-L-threonyl-L-seryl-L-cysteine cyclic (3->14) disulfide] (H-[dV]GCKA[dF]F[dW]KT[dF]TSC-OH; disulfide 3-14): the “inhibition of insulin concentration” value in assay [1] was “no significant inhibition”. The “inhibition of glucagon concentration” value in assay [2] was “no significant inhibition”. Further, the Serum Growth Hormone Conc. Mean ± SEM is 72.1 ± 27.3 ng/mL in assay [3] (setting [4]) and 31.9 ± 16.6 ng/mL in assay [3] (setting [5]). Moreover, the “% Inhibition of GH release (as compared to saline controls)” value (“% Inhibition of GH release” for short) in assay [3] (Dose (mg/kg) 2) turned out to be 27.9%; in assay [3] (Dose (mg/kg) 50) it was 68.1%.

As for `CC(C)[C@@H](N)C(=O)NCC(=O)N[C@H]1CSSC[C@@H](C(=O)O)NC(=O)[C@H](CO)NC(=O)[C@H]([C@@H](C)O)NC(=O)[C@@H](Cc2ccccc2)NC(=O)[C@H]([C@@H](C)O)NC(=O)[C@H](CCCCN)NC(=O)[C@@H](Cc2c[nH]c3ccccc23)NC(=O)[C@H](Cc2ccccc2)NC(=O)[C@H](Cc2ccccc2)NC(=O)[C@H](C)NC(=O)[C@H](CCCCN)NC1=O` [Example 7, D-Valyl-L-glycyl-L-cysteinyl-L-lysyl-L-alanyl-L-phenylalanyl-L-phenylalanyl-D-tryptophyl-L-lysyl-L-threonyl-D-phenyl-alanyl-L-threonyl-L-seryl-L-cysteine cyclic (3->14) disulfide] (H-[dV]GCKAFF[dW]KT[dF]TSC-OH; disulfide 3-14), the “inhibition of insulin concentration” value in assay [1] is “no significant inhibition”. The “inhibition of glucagon concentration” value in assay [2] is listed as “no significant inhibition”. Further, the Serum Growth Hormone Conc. Mean ± SEM in assay [3] (setting [4]) is 94.7 ± 22 ng/mL; in assay [3] (setting [5]), 38.7 ng/mL. Besides, the “% Inhibition of GH release” value in assay [3] (Dose (mg/kg) 2) came out at 45.9%; in assay [3] (Dose (mg/kg) 50), 77.5%.

With `CC(C)C[C@@H]1NC(=O)[C@H](C)NC(=O)[C@H](CCCCN)NC(=O)[C@@H](NC(=O)CNC(=O)[C@H](N)C(C)C)CSSC[C@@H](C(=O)O)NC(=O)[C@H](CO)NC(=O)[C@H]([C@@H](C)O)NC(=O)[C@@H](Cc2ccccc2)NC(=O)[C@H]([C@@H](C)O)NC(=O)[C@H](CCCCN)NC(=O)[C@@H](Cc2c[nH]c3ccccc23)NC(=O)[C@H](Cc2ccccc2)NC1=O` [Example 10, D-Valyl-L-glycyl-L-cysteinyl-L-lysyl-L-alanyl-L-leucyl-L-phenylalanyl-D-tryptophyl-L-lysyl-L-threonyl-D-phenylalanyl-L-threonyl-L-seryl-L-cysteine cyclic (3->14) disulfide] (H-[dV]GCKALF[dW]KT[dF]TSC-OH; disulfide 3-14), the “inhibition of insulin concentration” value in assay [1] is “no significant inhibition”. The “inhibition of glucagon concentration” value in assay [2] is recorded as “no significant inhibition”. Further, the figures for the Serum Growth Hormone Conc. Mean ± SEM in assay [3] (setting [4]) and in assay [3] (setting [5]) were 82.8 ± 19.6 ng/mL and 93.5 ± 22.6 ng/mL, respectively. In addition, the results for the “% Inhibition of GH release” value in assay [3] (Dose (mg/kg) 2) and in assay [3] (Dose (mg/kg) 50) were 37.3% and 29.3%, respectively.

With `C[C@H](N)C(=O)N[C@H](C)C(=O)N[C@H]1CSSC[C@@H](C(=O)O)NC(=O)[C@H](CO)NC(=O)[C@H]([C@@H](C)O)NC(=O)[C@@H](Cc2ccccc2)NC(=O)[C@H]([C@@H](C)O)NC(=O)[C@H](CCCCN)NC(=O)[C@@H](Cc2c[nH]c3ccccc23)NC(=O)[C@H](Cc2ccccc2)NC(=O)[C@H](Cc2ccccc2)NC(=O)[C@H](C)NC(=O)[C@H](CCCCN)NC1=O` [Example 14, L-Alanyl-D-alanyl-L-cysteinyl-L-lysyl-L-alanyl-L-phenylalanyl-L-phenylalanyl-D-tryptophyl-L-lysyl-L-threonyl-D-phenylalanyl-L-threonyl-L-seryl-L-cysteine cyclic (3->14) disulfide] (H-A[dA]CKAFF[dW]KT[dF]TSC-OH; disulfide 3-14), the “inhibition of insulin concentration” value in assay [1] was “no significant inhibition”. In assay [2], the “inhibition of glucagon concentration” value was “no significant inhibition”. In addition, the Serum Growth Hormone Conc. Mean ± SEM came out at 132 ± 69.4 ng/mL in assay [3] (setting [4]) and 77.8 ± 19.6 ng/mL in assay [3] (setting [5]). The entries for the “% Inhibition of GH release” value in assay [3] (Dose (mg/kg) 2) and in assay [3] (Dose (mg/kg) 50) were 20% and 53%, respectively.

For the compound `C[C@H](N)C(=O)NCC(=O)N[C@H]1CSSC[C@@H](C(=O)O)NC(=O)[C@H](CO)NC(=O)[C@H]([C@@H](C)O)NC(=O)[C@H](Cc2ccccc2)NC(=O)[C@H]([C@@H](C)O)NC(=O)[C@H](CCCCN)NC(=O)[C@H](Cc2c[nH]c3ccccc23)NC(=O)[C@H](Cc2ccccc2)NC(=O)[C@H](Cc2ccccc2)NC(=O)[C@H](CC(N)=O)NC(=O)[C@H](CCCCN)NC1=O` [Somatostatin], the “effect on the increase in insulin concentration induced by L-alanine” value in assay [1] (setting [6]) is reported as “inhibits the increase”. In addition, the “effect on basal serum concentration of insulin” value in assay [1] (setting [7]) is on record as “decrease”. In addition, in assay [2] (setting [6]), the “effect on the increase in glucagon concentration induced by L-alanine” value is “inhibits the increase”. In addition, in assay [2] (setting [7]), the “effect on basal serum concentration of glucagon” value is given as “decrease”. The “% Inhibition of GH release” value in assay [3] (Dose (mg/kg) 2) is 0%; in assay [3] (Dose (mg/kg) 50) it was 86.6% and 84.9% and 89.7% and 93%.
